Results on 16 substances are retold here after patent US7449545B2, “Antimicrobial bolisin peptides” (IPF Pharmaceuticals GmbH, priority 2001, dated 2008).

Ends that are not written are not given here.

Holding throughout (assay type): cell-based
For experiment [1], the system named is Escherichia coli ATCC 25922. The conditions noted are these: ATCC 25922, 2 h. The source says: (§1) The bolisin analogues of the present invention were examined for their suitability as antibiotic therapeutical agents by means of various biological tests. Thus, the chemically synthesized peptides were examined for their antimicrobial effectiveness against three Gram-positive and three Gram-negative bacterial strains as well as against a yeast.
(§2) The following microorganisms were used: • Gram-positive: Staphylococcus aureus ATCC 25923 • Enterococcus faecalis ATCC 51299 (vancomycin-resistant) • Streptococcus pneumoniae DSM 11865 (penicillin-resistant) • Gram-negative: Escherichia coli ATCC 25922 • Pseudomonas aeruginosa ATCC 9027 • Klebsiella pneumoniae ATCC 10031 • Yeast: Candida albicans ATCC 10231
(§3) The antibiotic activity of bolisin analogues was examined by determining the minimum inhibition concentration. […] This method allows to obtain a quantitative result about the antimicrobial potency of the peptides. These examinations were performed by analogy with the recommendations (M7-A3) edited by the NCCLS (National Committee for Clinical Laboratory Standards) by applying a dilution test in a liquid medium using chemically synthesized peptides (peptide sequences according to claims 1 to 3). Mueller Hinton Broth was used as the test medium according to the NCCLS recommendations unless indicated otherwise. […] The minimum inhibition concentrations are stated in [μg/ml].
(§4) A complete growth inhibition could not be achieved in this case. For determining the minimum inhibition concentration, the following microorganisms were used: • 1. Staphylococcus aureus ATCC 25923 • 2. Enterococcus faecalis ATCC 51299 (vancomycin-resistant) • 3. Streptococcus pneumoniae DSM 11865 (penicillin-resistant) • 4. Escherichia coli ATCC 25922 • 5. Pseudomonas aeruginosa ATCC 9027 • 6. Klebsiella pneumoniae ATCC 10031 • 7. Candida albicans ATCC 10231

Experiment [2] concerns Staphylococcus aureus ATCC 25923. The conditions noted are these: ATCC 25923, 2 h.
Description: as §1, §2, §3, §4

Experiment [3] has as its system Streptococcus pneumoniae DSM 11865 (penicillin-resistant). The conditions noted are these: DSM 11865, 2 h.
Description: as §1, §2, §3, §4

Experiment [4] deals with Klebsiella pneumoniae ATCC 10031. The conditions noted are these: ATCC 10031, 2 h.
Description: as §1, §2, §3, §4

The test system of experiment [5] is Enterococcus faecalis ATCC 51299 (vancomycin-resistant). The conditions noted are these: ATCC 51299, 2 h.
Description: as §1, §2, §3, §4

The subject of experiment [6] is Pseudomonas aeruginosa ATCC 9027. The conditions noted are these: ATCC 9027, 2 h.
Experiment [7] concerns Candida albicans ATCC 10231. The conditions noted are these: for minimum inhibition concentration: ATCC 10231, 2 h; for peptide concentration giving 75% inhibition of growth (value in parentheses): Mueller Hinton Broth, complete growth inhibition not achieved.
Description: as §1, §2, §3, §4

The test system of experiment [8] is Pseudomonas aeruginosa ATCC 9027. The conditions noted are these: Mueller Hinton Broth; complete growth inhibition not achieved.
Description: as §1, §2
The antibiotic activity of bolisin analogues was examined by determining the minimum inhibition concentration. The minimum inhibition concentration of an analogue designates the lowest peptide concentration which is required to inhibit the growth of microorganisms completely after an incubation time of 18±2 h. This method allows to obtain a quantitative result about the antimicrobial potency of the peptides. These examinations were performed by analogy with the recommendations (M7-A3) edited by the NCCLS (National Committee for Clinical Laboratory Standards) by applying a dilution test in a liquid medium using chemically synthesized peptides (peptide sequences according to claims 1 to 3). Mueller Hinton Broth was used as the test medium according to the NCCLS recommendations unless indicated otherwise. […] The minimum inhibition concentrations are stated in [μg/ml].
as §4

As for “YIRYKIRSARKRRKALK-OH [BOL-17, YIRYKIRSARKRRKALK]”, the minimum inhibition concentration is 37.5 µg/mL in experiment [1]; 37.5 µg/mL in experiment [2]; 300 µg/mL in experiment [3]; 9.375 µg/mL in experiment [4]; 200 µg/mL in experiment [5]; 200 µg/mL in experiment [6].

Turning to “YIRYKRRSARKRRKALK-OH [BOL-18, YIRYKRRSARKRRKALK]”, the minimum inhibition concentration in experiment [1] is 18.75 µg/mL; in experiment [2], 18.75 µg/mL; in experiment [3], above 300 µg/mL; in experiment [4] it was 37.5 µg/mL; in experiment [5], above 300 µg/mL; in experiment [6] it was 300 µg/mL.

As for “YIVRKIRSARKRRKALK-OH [BOL-83, YIVRKIRSARKRRKALK]”, the minimum inhibition concentration in experiment [1] is above 300 µg/mL; in experiment [2] it was above 300 µg/mL; in experiment [3], above 300 µg/mL; in experiment [4], above 300 µg/mL; in experiment [7], 300 µg/mL; in experiment [5], above 300 µg/mL. Moreover, the minimum inhibition concentration in experiment [6] was above 300 µg/mL.

As to YIVYKIRSADKRSKALK-OH [Bolisin], the minimum inhibition concentration in experiment [1], in experiment [2], in experiment [3], in experiment [4], in experiment [7] and in experiment [5] was above 300 µg/mL throughout. Also, the minimum inhibition concentration in experiment [6] was above 300 µg/mL.

On to “YIVYKIRSAWKRWK-OH [BOL-70, YIVYKIRSAWKRWK]”, for which the minimum inhibition concentration turned out to be 100 µg/mL in experiment [1]; 100 µg/mL in experiment [2]; 150 µg/mL in experiment [3]; 75 µg/mL in experiment [4]; 37.5 µg/mL in experiment [7]; 150 µg/mL in experiment [5]. Also, the “peptide concentration giving 75% inhibition of growth (value in parentheses)” value in experiment [8] is recorded as “(100) μg/ml”.

For the substance “YIVYKIRSAWKRWKAL [BOL-67, YIVYKIRSAWKRWKAL]”, the minimum inhibition concentration in experiment [1] stood at 25 µg/mL; in experiment [2], 25 µg/mL; in experiment [3], 100 µg/mL; in experiment [4], 37.5 µg/mL; in experiment [7], 18.75 µg/mL; in experiment [5], 100 µg/mL. In addition, the “peptide concentration giving 75% inhibition of growth (value in parentheses)” value in experiment [8] is “(50) μg/ml”.

Regarding “YIVYKIRSAWKRWKALK-OH [BOL-45, YIVYKIRSAWKRWKALK]”, the minimum inhibition concentration in experiment [1] turned out to be 12.5 µg/mL; in experiment [2], 18.75 µg/mL; in experiment [3], 100 µg/mL; in experiment [4], 4.7 µg/mL; in experiment [7], 18.75 µg/mL; in experiment [5], 100 µg/mL. For the same substance, the “peptide concentration giving 75% inhibition of growth (value in parentheses)” value in experiment [8] is recorded as “(25) μg/ml”.

For the substance “YIVYKIRWAKKRKKALK-OH [BOL-59, YIVYKIRWAKKRKKALK]”, the minimum inhibition concentration in experiment [1] stood at 150 µg/mL; in experiment [2], 50 µg/mL; in experiment [3] it was 50 µg/mL; in experiment [4], 18.75 µg/mL; in experiment [5], 50 µg/mL. In addition, the “peptide concentration giving 75% inhibition of growth (value in parentheses)” value in experiment [7] was “(9.375) μg/ml”; in experiment [8], “(18.75) μg/ml”.

On to “YIVYKIRWAKKRWKALK-OH [BOL-60, YIVYKIRWAKKRWKALK]”, for which the minimum inhibition concentration in experiment [1] turned out to be 100 µg/mL; in experiment [2], 50 µg/mL; in experiment [3], 50 µg/mL; in experiment [4], 18.75 µg/mL; in experiment [5], 25 µg/mL. Also, the “peptide concentration giving 75% inhibition of growth (value in parentheses)” value in experiment [7] and in experiment [8] was “(18.75) μg/ml” each time.

Take “YIVYKIRWARKRRK-OH [BOL-73, YIVYKIRWARKRRK]”: the minimum inhibition concentration in experiment [1] was found to be 50 µg/mL; in experiment [2] it was 37.5 µg/mL; in experiment [3] it was 18.75 µg/mL; in experiment [4] it was 18.75 µg/mL; in experiment [7] it was 9.375 µg/mL; in experiment [5], 25 µg/mL. Further, in experiment [8], the “peptide concentration giving 75% inhibition of growth (value in parentheses)” value is “(9.375) μg/ml”.

For “YIVYKIRWARKRRKAL [BOL-72, YIVYKIRWARKRRKAL]”, the minimum inhibition concentration in experiment [1] was found to be 100 µg/mL; in experiment [2] it was 75 µg/mL; in experiment [3], 18.75 µg/mL; in experiment [4], 18.75 µg/mL; in experiment [7] it was 18.75 µg/mL; in experiment [5], 25 µg/mL. Also, the “peptide concentration giving 75% inhibition of growth (value in parentheses)” value in experiment [8] is “(12.5) μg/ml”.

For “YIVYKIRWARKRRKALK-OH [BOL-50, YIVYKIRWARKRRKALK]”, the minimum inhibition concentration was determined as 50 µg/mL in experiment [1]; 37.5 µg/mL in experiment [2]; 18.75 µg/mL in experiment [3]; 9.375 µg/mL in experiment [4]; 9.375 µg/mL in experiment [7]; 25 µg/mL in experiment [5]. Further, the “peptide concentration giving 75% inhibition of growth (value in parentheses)” value in experiment [8] is reported as “(6.25) μg/ml”.

In the case of “YIVYKIRWARKRSKALK-OH [BOL-49, YIVYKIRWARKRSKALK]”, the minimum inhibition concentration in experiment [1] turned out to be 50 µg/mL; in experiment [2], 75 µg/mL; in experiment [3], 18.75 µg/mL; in experiment [4], 18.75 µg/mL; in experiment [7], 18.75 µg/mL; in experiment [5] it was 25 µg/mL. The “peptide concentration giving 75% inhibition of growth (value in parentheses)” value in experiment [8] is “(12.5) μg/ml”.

As to “YIVYKIRWARKRWKALK-OH [BOL-51, YIVYKIRWARKRWKALK]”, the minimum inhibition concentration is 50 µg/mL in experiment [1]; 37.5 µg/mL in experiment [2]; 12.5 µg/mL in experiment [3]; 18.75 µg/mL in experiment [4]; 25 µg/mL in experiment [5]; 300 µg/mL in experiment [6]. Besides, the “peptide concentration giving 75% inhibition of growth (value in parentheses)” value in experiment [7] is “(18.75) μg/ml”; in experiment [8] it was 25 µg/mL.

“YIVYKIRWAWKRKKALK-OH [BOL-61, YIVYKIRWAWKRKKALK]”: the minimum inhibition concentration is 25 µg/mL in experiment [1]; 37.5 µg/mL in experiment [2]; 25 µg/mL in experiment [3]; 18.75 µg/mL in experiment [4]; 9.375 µg/mL in experiment [7]; 25 µg/mL in experiment [5]. The minimum inhibition concentration in experiment [6] came out at 300 µg/mL. Besides, the “peptide concentration giving 75% inhibition of growth (value in parentheses)” value in experiment [8] came out at 75 µg/mL.

“YIVYKIRWAWKRSKALK-OH [BOL-47, YIVYKIRWAWKRSKALK]”: the minimum inhibition concentration in experiment [1] was 18.75 µg/mL; in experiment [2], 18.75 µg/mL; in experiment [3] it was 18.75 µg/mL; in experiment [4], 9.375 µg/mL; in experiment [7], 18.75 µg/mL; in experiment [5], 25 µg/mL. Further, in experiment [8], the “peptide concentration giving 75% inhibition of growth (value in parentheses)” value is recorded as “(25) μg/ml”.
